Test results: US12473277B2, “Solid forms of a modulator of hemoglobin” (GLOBAL BLOOD THERAPEUTICS, INC., priority 2021, dated 2025)
Where a name gives a salt, the structure may show the parent alone.

How the values were obtained:
[1] = Physical stability of solid forms under humidity, temperature or vacuum stress (XRPD/observation); assay type: physicochemical
Procedure: XRPD figures were generated using SSCI Pattern Match 3.0.4, unvalidated software. XRPD patterns were collected with a PANalytical X'Pert PRO MPD or a PANalytical Empyrean diffractometer using an incident beam of Cu radiation produced using an Optix long, fine-focus source. An elliptically graded multilayer mirror was used to focus Cu Kα X-rays through the specimen and onto the detector. Prior to the analysis, a silicon specimen (NIST SRM 640e or NIST SRM 6400 was analyzed to verify the observed position of the Si 111 peak is consistent with the NIST-certified position. A specimen of the sample was sandwiched between 3-μm-thick films and analyzed in transmission geometry. A beam-stop, short antiscatter extension, and antiscatter knife edge were used to minimize the background generated by air. Soller slits for the incident and diffracted beams were used to minimize broadening and asymmetry from axial divergence. Diffraction patterns were collected using a scanning position-sensitive detector (X'Celerator) located 240 mm from the specimen and Data Collector software v. 2.2b or v. 5.5.

[2] = Dynamic vapor sorption/desorption (DVS) isotherm; assay type: physicochemical; conditions: for hygroscopicity indicated by DVS isotherm: 5% to 95% RH, 10% RH increments, nitrogen purge; for weight gain and loss through the sorption/desorption cycle / weight gain through the sorption cycle / weight loss upon desorption: DVS; for weight gain and loss through the sorption/desorption cycle / weight gain through the sorption cycle: 5 to 95% RH; for material recovered from the DVS experiment, by XRPD: after DVS sorption/desorption cycle; for weight loss upon desorption: 95 to 5% RH
Procedure: Automated vapor sorption (VS) data were collected on a Surface Measurement System DVS Intrinsic instrument or a VTI SGA-100 instrument. Samples were not dried prior to analysis. Sorption and desorption data were collected over a range from 5% to 95% relative humidity (RH) at 10% RH increments under a nitrogen purge. The equilibrium criterion used for analysis was less than 0.0100% weight change in 5 minutes with a maximum equilibration time of 3 hours. Data were not corrected for the initial moisture content of the samples.

[3] = Binary interconversion slurry experiments between Compound I Form I and Compound I Material II; assay type: physicochemical; conditions: room temperature slurries
Text: Binary interconversion slurry experiments between Compound I Form I and Compound I Material II in different solvent systems at room temperature are summarized in Table 2. Saturated solutions were generated and then added to mixtures composed of approximately equivalent quantities of the two polymorphs. The samples were slurried for several days and the solids harvested and analyzed by XRPD.

physchem = conditions: water

## CCS(=O)(=O)O.O=Cc1c(O)cccc1OC[C@@H]1COCCN1C(=O)c1cccnc1CCO [Compound I Esylate Form A, (S)-2-hydroxy-6-((4-(2-(2-hydroxyethyl)nicotinoyl)morpholin-3-yl)methoxy)benzaldehyde esylate]
[1]; 44° C. under vacuum
  physical stability under vacuum (XRPD): not physically stable

## CCS(=O)(=O)O.O=Cc1c(O)cccc1OC[C@@H]1COCCN1C(=O)c1cccnc1CCO [Compound I Esylate Form B, (S)-2-hydroxy-6-((4-(2-(2-hydroxyethyl)nicotinoyl)morpholin-3-yl)methoxy)benzaldehyde esylate]
[1]; 90% relative humidity, ambient temperature
  physical stability under high humidity: deliquesced

## O=Cc1c(O)cccc1OC[C@@H]1COCCN1C(=O)c1cccnc1CCO [Compound I Form I, (S)-2-hydroxy-6-((4-(2-(2-hydroxyethyl)nicotinoyl)morpholin-3-yl)methoxy)benzaldehyde]
[2]
  hygroscopicity indicated by DVS isotherm: low hygroscopicity
  weight gain and loss through the sorption/desorption cycle: 0.7%
  material recovered from the DVS experiment, by XRPD: identified as Compound I Form I
[3]
  relative thermodynamic stability from interconversion studies: most thermodynamically stable form relative to Material II

## O=Cc1c(O)cccc1OC[C@@H]1COCCN1C(=O)c1cccnc1CCO [Compound I HCl Form A]
[2]
  hygroscopicity indicated by DVS isotherm: significant hygroscopicity
  weight gain through the sorption cycle: 3%
  weight loss upon desorption: 3.3%
  material recovered from the DVS experiment, by XRPD: remained Compound I HCl Form A
[1]; 40° C./75% RH for 27 days
  physical stability, XRPD pattern after stress: no changes were observed in the XRPD pattern

## O=Cc1c(O)cccc1OC[C@@H]1COCCN1C(=O)c1cccnc1CCO [Compound I Material II, (S)-2-hydroxy-6-((4-(2-(2-hydroxyethyl)nicotinoyl)morpholin-3-yl)methoxy)benzaldehyde]
[2]
  hygroscopicity indicated by DVS isotherm: significant hygroscopicity above 85% RH
  weight gain and loss through the sorption/desorption cycle: approximately 3.4%
  material recovered from the DVS experiment, by XRPD: identified as Compound I Material II

## O=Cc1c(O)cccc1OC[C@@H]1COCCN1C(=O)c1cccnc1CCO.O=S(=O)(O)c1cccc2c(S(=O)(=O)O)cccc12 [Compound I Napadisylate Form A, (S)-2-hydroxy-6-((4-(2-(2-hydroxyethyl)nicotinoyl)morpholin-3-yl)methoxy)benzaldehyde napadisylate]
[1]; 43° C. under vacuum, within 4 days
  physical stability under vacuum (XRPD): not physically stable

## O=C(O)C(=O)O.O=Cc1c(O)cccc1OC[C@@H]1COCCN1C(=O)c1cccnc1CCO [Compound I Oxalate Form B, (S)-2-hydroxy-6-((4-(2-(2-hydroxyethyl)nicotinoyl)morpholin-3-yl)methoxy)benzaldehyde oxalate]
[1]; 90% RH, ambient temperature, 11 days
  physical stability under high humidity (XRPD): still predominately Compound I Oxalate Form B
physchem
  solubility: > 134 mg/mL

## O=Cc1c(O)cccc1OC[C@@H]1COCCN1C(=O)c1cccnc1CCO.O=S(=O)(O)O [Compound I Sulfate Form A, (S)-2-hydroxy-6-((4-(2-(2-hydroxyethyl)nicotinoyl)morpholin-3-yl)methoxy)benzaldehyde sulfate]
[1]; 43° C. under vacuum for 2 days
  physical stability under vacuum (XRPD): physically stable
[1]; 90% RH, ambient temperature, within 1 day
  physical stability under high humidity: deliquesces
physchem
  solubility: > 87 mg/mL

## O=Cc1c(O)cccc1OC[C@@H]1COCCN1C(=O)c1cccnc1CCO [amorphous Compound I, (S)-2-hydroxy-6-((4-(2-(2-hydroxyethyl)nicotinoyl)morpholin-3-yl)methoxy)benzaldehyde]
[2]
  hygroscopicity indicated by DVS isotherm: significant hygroscopicity
  weight gain through the sorption cycle: approximately 10%
  weight loss upon desorption: 7%
  material recovered from the DVS experiment, by XRPD: remained amorphous

## (S)-2-hydroxy-6-((4-(2-(2-hydroxyethyl)nicotinoyl)morpholin-3-yl)methoxy)benzaldehyde edisylate [Compound I Edisylate Form A]
[1]; ambient conditions, relative humidity approximately 57%
  physical stability upon exposure to ambient conditions: very hygroscopic and not stable under ambient conditions
[1]; damp sample, 43° C. vacuum oven
  physical stability on drying in vacuum oven (XRPD): physical instability

## (S)-2-hydroxy-6-((4-(2-(2-hydroxyethyl)nicotinoyl)morpholin-3-yl)methoxy)benzaldehyde edisylate [Compound I Edisylate Material B]
[1]; 44° C. under vacuum
  physical stability under vacuum (XRPD): additional unidentified peaks
